Test results taken from the NIST ThermoML archive (doi:10.1016/j.fluid.2017.04.010).
± gives the expanded uncertainty stated by the source.

Assay: wn = mass fraction of the nth substance listed
Details: 88.35 kPa, Liquid; for viscosity: Capillary tube (Ostwald / Ubbelohde) method

SMILES: O=S(=O)([O-])[O-].[K+].[K+] [potassium sulfate] + O
- viscosity (298.15 K, w1 = 0.1156): 1.015 ± 0.1 mPa·s
- mass density (298.15 K, weighing bottle method, w1 = 0.1156): 1084.3 ± 11 kg/m3
- viscosity (313.15 K, w1 = 0.1337): 0.7917 ± 0.08 mPa·s
- mass density (313.15 K, weighing bottle method, w1 = 0.1337): 1097.7 ± 11 kg/m3

SMILES: O=P([O-])(O)O.[K+] [monopotassium phosphate] + O
- viscosity (298.15 K, w1 = 0.2075): 1.198 ± 0.12 mPa·s
- mass density (298.15 K, Weighing bottle method, w1 = 0.2075): 1144 ± 11 kg/m3
- viscosity (313.15 K, w1 = 0.2579): 1.013 ± 0.1 mPa·s
- mass density (313.15 K, Weighing bottle method, w1 = 0.2579): 1187.2 ± 12 kg/m3

SMILES: [Cl-].[K+] [potassium chloride] + O
- viscosity (298.15 K, w1 = 0.2672): 0.8122 ± 0.081 mPa·s
- mass density (298.15 K, Weighing bottle method, w1 = 0.2672): 1180 ± 12 kg/m3
- viscosity (313.15 K, w1 = 0.29): 0.6778 ± 0.068 mPa·s
- mass density (313.15 K, Weighing bottle method, w1 = 0.29): 1192 ± 12 kg/m3
